From US20080300298A1, “Honokiol Derivates For the Treatment of Proliferative Disorders” (priority 2005, published 2008)

How the values were obtained:
[1] = test system: RAW 264.7 cells; assay: Osteoclast differentiation assay (RANKL); type: cell-based, mouse; conditions: RAW 264.7, 5 mM (printed) honokiol 12 h, 5 nM RANKL
Experimental: (A) RAW 264.7 cells (1×10^4) were plated overnight, pretreated with 5 mM honokiol for 12 h, and then treated with 5 nM RANKL. At 4 and 5 days later, cells were stained for TRAP and evaluated for osteoclastogenesis. Photographs were taken after 5 days of incubation with RANKL. (B) The numbers of TRAP-positive multinucleated osteoclasts (>3 nuclei) per well were counted. (C) H1299 cells (2.5×10^4) were seeded into the upper wells of a Matrigel invasion chamber overnight in the absence of serum, pretreated with […] honokiol for 12 h, treated with 1 nM TNF for 24 h in the presence of 1% serum, and then subjected to invasion assay. The value for no honokiol and no TNF was set to 1.0.
Osteoclast differentiation assay. […] At days 4 and 5, the cells were stained for tartrate-resistant acid phosphatase (TRAP) expression, as previously described (18) using an acid phosphatase kit (Sigma-Aldrich), and the TRAP-positive multinucleated osteoclasts (>3 nuclei) per well were counted.
Honokiol suppresses RANKL-induced osteoclastogenesis. Because RANKL, a member of the TNF superfamily, induces osteoclastogenesis through the activation of NF-kB (Abu-Amer, Y., et al. 1997 Nat. Med. 3:1189-1190), whether honokiol can suppress RANKL-induced osteoclastogenesis was assessed. […]

[2] = test system: MDA-MB-231 cells; assay: MDA-MB-231 tumors in nude mice; type: in vivo
Experimental: FIG. 36 is a graph of tumor volume over weeks of tumors in mice. MDA-MB-231 cells were injected into both flanks of athymic nude mice. The mice were treated with daily I.P. injections of either a vehicle (n=5) or HNK (2 mg/d, n=5) for four weeks.
Animal studies: All animals were maintained and animal experiments were performed under NIH and institutional guidelines established for the Animal Core Facility at the Cedars-Sinai Medical Center. MDA-MB-231 cells were harvested, washed twice with sterile PBS, counted and re-suspended in Matrigel (BD Biosciences, San Jose, Calif.). Six-week-old female athymic nude mice were injected subcutaneously in both flanks with cells at a density of 1×10^6 viable cells/100 μl. […] Tumor size was measured with a linear caliper for up to 5 weeks, and the volume was estimated by using the equation V=(a×b2)×0.5236, where “a” is the larger dimension and “b” the perpendicular diameter.
In vivo activity of HNK against human breast cancer. MDA-MB-231 cells were injected on both flanks of nude mice (1×10^6 cells per injection, five mice per group, two tumors in each mouse), and tumor growth was monitored weekly. […] The mice were treated with daily injections of either 2 mg HNK (100 mg/kg) or a control vehicle for four weeks; and the tumors were measured weekly.

[3] = test system: cyclin D1, p27Kip1, p21Cip1/WAF1, EGFR, AKT, ERK2 in MDA-MB-231 cells; assay: Western blot of cell cycle and growth signaling proteins; type: cell-based; conditions: MDA-MB-231, 20, 40 and 60 μM, 24 hours
Experimental: Western blot analysis: Cells were harvested and lysed for total protein extraction in a buffer containing 50 mM Tris-Cl pH 7.4, 150 mM NaCl and 2% NP-40 together with a protease inhibitor cocktail (Comp). Approximately 50-150 μg of protein extract was loaded on a 4-15% polyacrylamide gels (Bio-Rad, Hercules, Calif.), separated electrophoretically and blotted from the gel onto PVDF membrane. The membranes were then blocked with a blocking buffer (5% non-fat dry milk in 1×TBST, i.e. 20 mM Tris-HCl, pH 7.6 containing 0.8% NaCl and 0.1% Tween-20) at room temperature for 1 h. The membranes were incubated with the primary antibodies in blocking buffer, followed by incubation with HRP-labeled secondary antibodies. Immunoactivity was detected with horseradish peroxidase-conjugated secondary antibody and visualized by Enhanced Chemiluminescence (Pierce, Rockford, Ill.). Quantification of the results was performed using AlphaImager 2000 (Alpha Innotech, San Leandro, Calif.).
HNK slows cell cycle in breast cancer cell lines. The effects of HNK (10 μM or 30 μM HNK for 24 hours) on cell cycle were evaluated in MCF-7 and MDA-MB-231 cells. These doses of HNK are less than the LC50 for both cell lines. […] Expression of proteins involved in G1 cell-cycle regulation (massgue) was examined in MDA-MB-231 cells using Western analysis.
HNK inhibits growth signaling pathways. […]

## C=CCc1ccc(O)c(-c2ccc(O)c(CC=C)c2)c1 [HNK, Honokiol]
[1]
  RANKL-induced osteoclast differentiation (TRAP): suppressed it
[2]; 2 mg HNK (100 mg/kg) daily i.p., four weeks, p<0.02 from week 2
  tumor growth: complete arrest of tumor growth
[2]; therapeutically beneficial doses
  tolerability in the animals: well tolerated by the animals
[3]
  expression of G1 cell-cycle regulation proteins: reduced the levels of cyclin D1, and upregulated expression of the cyclin-dependent kinase inhibitors, p27Kip1 and p21Cip1/WAF1
